What was measured:
[1] = molecular target: His6-TEV-PDGFRβ (557-1016) (Homo sapiens (Human), UniProt P09619); experiment: PDGFRβ HTRF Assay; assay type: biochemical; details: read-out: PDGFR HTRF IC50
How it was run: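 HTRF KinEASE-TK readout (665/620 nm ratio) of TK-biotin substrate phosphorylation by His-tagged PDGFRβ kinase domain. Enzyme and inhibitor preincubated 30 min, then ATP/substrate added for 3 h at room temperature before 60 min EDTA quench/detection.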

VEGFR2, unphosphorylated = VEGFR2, unphosphorylated (Homo sapiens (Human), UniProt P35968); experiment: VEGFR ADP GLO Assay; assay type: biochemical
VEGFR2, unphosphorylated, sequence (P35968 20-1356): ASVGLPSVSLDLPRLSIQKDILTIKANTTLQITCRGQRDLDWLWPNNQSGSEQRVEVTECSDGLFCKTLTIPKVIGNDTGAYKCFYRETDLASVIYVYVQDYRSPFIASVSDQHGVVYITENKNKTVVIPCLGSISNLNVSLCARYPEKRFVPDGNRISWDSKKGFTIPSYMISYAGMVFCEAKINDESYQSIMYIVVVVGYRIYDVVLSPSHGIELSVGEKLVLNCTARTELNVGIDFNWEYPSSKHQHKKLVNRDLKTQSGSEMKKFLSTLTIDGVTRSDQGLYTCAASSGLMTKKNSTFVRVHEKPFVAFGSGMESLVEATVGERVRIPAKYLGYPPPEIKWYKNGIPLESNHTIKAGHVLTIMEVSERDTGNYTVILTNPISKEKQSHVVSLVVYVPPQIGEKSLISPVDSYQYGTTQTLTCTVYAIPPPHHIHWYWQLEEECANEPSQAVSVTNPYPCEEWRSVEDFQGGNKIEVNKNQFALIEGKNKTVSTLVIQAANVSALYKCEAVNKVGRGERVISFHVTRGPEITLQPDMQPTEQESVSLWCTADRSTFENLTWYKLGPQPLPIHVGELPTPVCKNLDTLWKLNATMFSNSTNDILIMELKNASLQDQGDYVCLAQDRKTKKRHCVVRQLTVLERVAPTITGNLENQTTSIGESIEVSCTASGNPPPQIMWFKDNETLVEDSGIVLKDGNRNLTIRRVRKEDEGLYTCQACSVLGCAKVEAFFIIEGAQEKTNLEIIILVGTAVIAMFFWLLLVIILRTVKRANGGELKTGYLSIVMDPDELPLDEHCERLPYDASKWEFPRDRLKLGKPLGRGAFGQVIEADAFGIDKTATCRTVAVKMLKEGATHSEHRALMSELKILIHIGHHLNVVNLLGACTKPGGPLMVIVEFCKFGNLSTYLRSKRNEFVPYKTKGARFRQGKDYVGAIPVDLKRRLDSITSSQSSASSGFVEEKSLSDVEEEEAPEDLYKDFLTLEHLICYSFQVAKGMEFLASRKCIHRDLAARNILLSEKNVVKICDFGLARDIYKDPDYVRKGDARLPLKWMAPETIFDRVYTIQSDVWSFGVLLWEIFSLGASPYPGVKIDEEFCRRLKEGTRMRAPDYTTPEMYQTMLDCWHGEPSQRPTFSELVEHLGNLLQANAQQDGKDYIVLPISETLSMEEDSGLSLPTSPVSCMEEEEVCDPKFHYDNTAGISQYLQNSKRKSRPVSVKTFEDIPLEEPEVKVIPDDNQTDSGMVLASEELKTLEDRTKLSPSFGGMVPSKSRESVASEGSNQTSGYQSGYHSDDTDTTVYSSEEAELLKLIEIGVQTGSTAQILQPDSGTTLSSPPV

His6-TEV-PDGFRβ (557-1016), sequence (P09619 557-1016): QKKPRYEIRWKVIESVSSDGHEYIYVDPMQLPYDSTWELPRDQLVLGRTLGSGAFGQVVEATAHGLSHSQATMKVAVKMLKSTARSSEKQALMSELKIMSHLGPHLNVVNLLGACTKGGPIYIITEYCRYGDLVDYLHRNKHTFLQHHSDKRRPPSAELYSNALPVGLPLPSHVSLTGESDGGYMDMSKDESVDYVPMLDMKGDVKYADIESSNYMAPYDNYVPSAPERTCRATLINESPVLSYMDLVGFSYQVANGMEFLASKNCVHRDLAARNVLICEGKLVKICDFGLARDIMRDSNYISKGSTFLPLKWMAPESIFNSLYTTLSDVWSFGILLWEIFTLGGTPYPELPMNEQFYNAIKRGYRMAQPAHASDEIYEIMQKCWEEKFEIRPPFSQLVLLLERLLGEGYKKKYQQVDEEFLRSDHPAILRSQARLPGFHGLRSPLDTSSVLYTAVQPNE

Structure (SMILES) | IC50 [1] [nM] | IC50 (VEGFR2, unphosphorylated) [nM]
COCC1CN(CC(=O)Nc2cnc(C)c(NC(=O)c3cnn4cc(-c5cnn(C)c5)sc34)c2)CC(C)(C)O1 (centres unmarked) [Example 383, N-(5-(2-(6-(methoxymethyl)-2,2-dimethylmorpholino)acetamido)-2-methylpyridin-3-yl)-2-(1-methyl-1H-pyrazol-4-yl)pyrazolo[5,1-b]thiazole-7-carboxamide] | 1 | > 2500
CCn1nccc1-c1cn2ncc(C(=O)Nc3cc(NC(=O)CN4CC(C)(C)C4)cnc3C)c2s1 [Example 388, N-(5-(2-(3,3-dimethylazetidin-1-yl)acetamido)-2-methylpyridin-3-yl)-2-(1-ethyl-1H-pyrazol-5-yl)pyrazolo[5,1-b]thiazole-7-carboxamide] | 0.5 | > 7500
CCc1ncccc1-c1cn2ncc(C(=O)Nc3cc(NC(=O)CN4CC(C)(C)C4)cnc3C)c2s1 [Example 391, N-(5-(2-(3,3-dimethylazetidin-1-yl)acetamido)-2-methylpyridin-3-yl)-2-(2-ethylpyridin-3-yl)pyrazolo[5,1-b]thiazole-7-carboxamide] | 0.9 | > 7500
COc1cc(-c2cn3ncc(C(=O)Nc4cc(NC(=O)CN5CC(C)(C)C5)cnc4C)c3s2)c(OC)nn1 [Example 393, 2-(3,6-dimethoxypyridazin-4-yl)-N-(5-(2-(3,3-dimethylazetidin-1-1)acetamido)-2-methylpyridin-3-yl)pyrazolo[5,1-b]thiazole-7-carboxamide] | 0.7 | > 7500
Cc1ncc(NC(=O)[C@@H]2CCCN2C(C)C)cc1NC(=O)c1cnn2cc(-c3cnn4c3OCCC4)sc12 [Example 346, (S)-2-(6,7-dihydro-5H-pyrazolo[5,1-b][1,3]oxazin-3-yl)-N-(5-(1-isopropylpyrrolidine-2-carboxamido)-2-methylpyridin-3-yl)pyrazolo[5,1-b]thiazole-7-carboxamide] | 0.5 | > 7500
COc1ncccc1-c1cn2ncc(C(=O)Nc3cc(NC(=O)CN4CC(C)(C)C4)cnc3C)c2s1 [Example 369, N-(5-(2-(3,3-dimethylazetidin-1-yl)acetamido)-2-methylpyridin-3-yl)-2-(2-methoxypyridin-3-yl)pyrazolo[5,1-b]thiazole-7-carboxamide] | 0.2 | > 7500
COc1ncccc1-c1cn2ncc(C(=O)Nc3cc(NC(=O)CN4CCC4)cnc3C)c2s1 [Example 397, N-(5-(2-(azetidin-1-yl)acetamido)-2-methylpyridin-3-yl)-2-(2-methoxypyridin-3-yl)pyrazolo[5,1-b]thiazole-7-carboxamide] | 0.8 | > 7500
Cc1ncc(NC(=O)CN2CC(C)(C)C2)cc1NC(=O)c1cnn2cc(-c3cncnc3C)sc12 [Example 398, N-(5-(2-(3,3-dimethylazetidin-1-yl)acetamido)-2-methylpyridin-3-yl)-2-(4-methylpyrimidin-5-yl)pyrazolo[5,1-b]thiazole-7-carboxamide] | 6.8 | > 7500
COc1ccncc1-c1cn2ncc(C(=O)Nc3cc(NC(=O)CN4C[C@H](C)O[C@@H](C)C4)cnc3C)c2s1 (relative stereo) [Example 385, N-(5-(2-(trans-2,6-dimethylmorpholino)acetamido)-2-methylpyridin-3-yl)-2-(4-methoxypyridin-3-yl)pyrazolo[5,1-b]thiazole-7-carboxamide] | 0.8 | > 833
Cc1ncc(NC(=O)C2CN(C(C)C)C2)cc1NC(=O)c1cnn2cc(-c3cn(C)nc3C)sc12 [Example 354, 2-(1,3-dimethyl-1H-pyrazol-4-yl)-N-(5-(1-isopropylazetidine-3-carboxamido)-2-methylpyridin-3-yl)pyrazolo[5,1-b]thiazole-7-carboxamide] | 0.2 | > 7500
COCCn1cc(-c2cn3ncc(C(=O)Nc4cc(NC(=O)C5CCN(C(C)C)C5)cnc4C)c3s2)cn1 (centres unmarked) [Example 345, N-(5-(1-isopropylpyrrolidine-3-carboxamido)-2-methylpyridin-3-yl)-2-(1-(2-methoxyethyl)-1H-pyrazol-4-yl)pyrazolo[5,1-b]thiazole-7-carboxamide] | 1.3 | > 7500
Cc1ncc(S(=O)(=O)NCCN2CCCC2(C)C)cc1NC(=O)c1cnn2cc(-c3cnn(C)c3)sc12 [Example 359, N-(5-(N-(2-(2,2-dimethylpyrrolidin-1-yl)ethyl)sulfamoyl)-2-methylpyridin-3-yl)-2-(1-methyl-1H-pyrazol-4-yl)pyrazolo[5,1-b]thiazole-7-carboxamide] | 16.4 | > 7500
COc1ncccc1-c1cn2ncc(C(=O)Nc3cc(NC(=O)CN4CC5(CCOCC5)C4)cnc3C)c2s1 [Example 403, N-(5-(2-(7-oxa-2-azaspiro[3.5]nonan-2-yl)acetamido)-2-methylpyridin-3-yl)-2-(2-methoxypyridin-3-yl)pyrazolo[5,1-b]thiazole-7-carboxamide carboxamide] | 0.2 | > 7500
Cc1ncc(NC(=O)CN2C[C@H](C)O[C@@H](C)C2)cc1NC(=O)c1cnn2cc(-c3cnn4c3OCCC4)sc12 (relative stereo) [Example 375, 2-(6,7-dihydro-5H-pyrazolo[5,1-b][1,3]oxazin-3-yl)-N-(5-(2-(trans-2,6-dimethylmorpholino)acetamido)-2-methylpyridin-3-yl)pyrazolo[5,1-b]thiazole-7-carboxamide] | 0.6 | > 833
Cc1ncc(NC(=O)CN2C[C@H](C)O[C@@H](C)C2)cc1NC(=O)c1cnn2cc(-c3cnn(C4CC4)c3)sc12 (relative stereo) [Example 382, 2-(1-cyclopropyl-1H-pyrazol-4-yl)-N-(5-(2-(trans-2,6-dimethylmorpholino)acetamido)-2-methylpyridin-3-yl)pyrazolo[5,1-b]thiazole-7-carboxamide] | 0.6 | > 2500
COCCn1cc(-c2cn3ncc(C(=O)Nc4cc(NC(=O)CN5CCCC56CCC6)cnc4C)c3s2)cn1 [Example 332, N-(5-(2-(5-azaspiro[3.4]octan-5-yl)acetamido)-2-methylpyridin-3-yl)-2-(1-(2-methoxyethyl)-1H-pyrazol-4-yl)pyrazolo[5,1-b]thiazole-7-carboxamide] | 0.6 | > 7500
COCCn1cc(-c2cn3ncc(C(=O)Nc4cc(NC(=O)[C@@H]5CCCN5C(C)C)cnc4C)c3s2)cn1 [Example 343, (S)—N-(5-(1-isopropylpyrrolidine-2-carboxamido)-2-methylpyridin-3-yl)-2-(1-(2-methoxyethyl)-1H-pyrazol-4-yl)pyrazolo[5,1-b]thiazole-7-carboxamide] | 3.5 | > 7500
COCCn1cc(-c2cn3ncc(C(=O)Nc4cc(NC(=O)CN5CCCCC5)cnc4C)c3s2)cn1 [Example 338, 2-(1-(2-methoxyethyl)-1H-pyrazol-4-yl)-N-(2-methyl-5-(2-(piperidin-1-yl)acetamido)pyridin-3-yl)pyrazolo[5,1-b]thiazole-7-carboxamide] | 0.4 | > 7500
COc1ncccc1-c1cn2ncc(C(=O)Nc3cc(NC(=O)CN4CC(C)C4)cnc3C)c2s1 [Example 405, 2-(2-methoxypyridin-3-yl)-N-(2-methyl-5-(2-(3-methylazetidin-1-yl)acetamido)pyridin-3-yl)pyrazolo[5,1-b]thiazole-7-carboxamide] | 0.2 | 6660
Cc1ncc(NC(=O)C2CCN(C(C)C)C2)cc1NC(=O)c1cnn2cc(-c3cnn4c3OCCC4)sc12 (centres unmarked) [Example 350, 2-(6,7-dihydro-5H-pyrazolo[5,1-b][1,3]oxazin-3-yl)-N-(5-(1-isopropylpyrrolidine-3-carboxamido)-2-methylpyridin-3-yl)pyrazolo[5,1-b]thiazole-7-carboxamide] | 0.3 | 6350
Cc1ncc(C(=O)NCCN2CCCC2(C)C)cc1NC(=O)c1cnn2cc(-c3cnn(Cc4cc(O)no4)c3)sc12 [Example 363, N-(5-((2-(2,2-dimethylpyrrolidin-1-yl)ethyl)carbamoyl)-2-methylpyridin-3-yl)-2-(1-((3-hydroxyisoxazol-5-yl)methyl)-1H-pyrazol-4-yl)pyrazolo[5,1-b]thiazole-7-carboxamide] | 1.3 | > 7500
COc1ncccc1-c1cn2ncc(C(=O)Nc3cc(NC(=O)CN4CC(F)C4)cnc3C)c2s1 [Example 402, N-(5-(2-(3-fluoroazetidin-1-yl)acetamido)-2-methylpyridin-3-yl)-2-(2-methoxypyridin-3-yl)pyrazolo[5,1-b]thiazole-7-carboxamide] | 0.3 | > 7500
COC/C=C/c1cn2ncc(C(=O)Nc3cc(NC(=O)CN4C[C@H](C)O[C@@H](C)C4)cnc3C)c2s1 (relative stereo) [Example 367, N-(5-(2-(trans-2,6-dimethylmorpholino)acetamido)-2-methylpyridin-3-yl)-2-((E)-3-methoxyprop-1-en-1-yl)pyrazolo[5,1-b]thiazole-7-carboxamide] | 1.8 | > 7500
Cc1ncc(NS(=O)(=O)CCN2CC3CCC2CC3)cc1NC(=O)c1cnn2cc(-c3cnn(C)c3)sc12 [Example 358, N-(5-((2-(2-azabicyclo[2.2.2]octan-2-yl)ethyl)sulfonamido)-2-methylpyridin-3-yl)-2-(1-methyl-1H-pyrazol-4-yl)pyrazolo[5,1-b]thiazole-7-carboxamide] | 86.6 | > 7500
Cc1ncc(NC(=O)CN2CC3CCC(C2)O3)cc1NC(=O)c1cnn2cc(-c3cc[nH]c3)sc12 [Example 366, N-(5-(2-(8-oxa-3-azabicyclo[3.2.1]octan-3-yl)acetamido)-2-methylpyridin-3-yl)-2-(1H-pyrrol-3-yl)pyrazolo[5,1-b]thiazole-7-carboxamide] | 0.3 | 571
